The values below come from US10821098B2, “Treatment using dantrolene” (Lyotropic Therapeutics, Inc., priority 2001, dated 2020).

In general, solubility refers to the dissolved amount per volume that the medium holds.

One data set concerns neuronal cells. The conditions noted are these: cited from earlier work.
The next data set has as its system Malignant Hyperthermia. The settings on record: in vivo; cited from earlier work.
The nature of another data set: solubility in water. The format is physicochemical.
Data set [1] has as its system rats subjected to 60 min of CPB. Briefly: recovery model of cardiopulmonary bypass (CPB) in the rat. The format is in vivo.
Procedure: For example, three groups of rats may be subjected to 60 min of normothermic (37.5 degrees C.) nonpulsatile cardiopulmonary bypass (CPB) using a roller pump and a membrane oxygenator. Group 1 rats (n=10) receive no treatment. Group 2 rats (n=10) are pretreated with low volume dantrolene IV, 2.5 mg/kg, and Group 3 rats (n=10) are pretreated with low volume dantrolene IV, 5.0 mg/kg. A fourth group, (Group 4) serve as sham operated controls (n=10). Neurologic outcome is assessed on days 1, 3, and 12 after CPB using standardized functional testing. Neurocognitive outcome, defined as the time (or latency) to finding a submerged platform in a Morris water maze (an indicator of visual-spatial learning and memory), is evaluated daily from post-CPB days 3-12. […]
The subject of a further data set is patients. Briefly: neurocognitive testing of patients undergoing coronary artery re-vascularization during cardiopulmonary bypass. The data set is classed as in vivo, humans. The settings on record: 1.0 mg/kg of 5% colloidal dantrolene; 24 hours and six weeks post-op.
A short description of a further data set: dissolution. The format is physicochemical.
Data set [2] has as its system apoptotic nuclei in the cortex of rats given 5 mg/kg kainic acid. The conditions noted are these: quotient A/B as defined in the patent.
Procedure: In the context of this patent, we define “therapeutic index” of a therapeutic drug (or mixture) to be the quotient A/B, where A and B are defined as follows: A is the LD50 (dose yielding 50% lethality) of the drug when given intraperitoneally to rats; and B is the dose of the drug that when given i.p. yields 50% reduction of apoptotic nuclei in the cortex of rats given 5 mg/kg kainic acid, according to the protocol described by Popescu et al. in [J. Cell.
A further data set concerns rats. The conditions noted are these: intraperitoneally to rats; cited from earlier work.
In data set [3] the test system is apoptotic nuclei in the cortex of rats given 5 mg/kg kainic acid. The settings on record: cited from earlier work.
The conditions of data set [4]: doses as high as 7.5 mg/kg i.v.; cited from earlier work.
In the next data set the test system is cell culture. The conditions noted are these: cited from earlier work.
The subject of data set [5] is rats subjected to 60 min of CPB. The settings on record: Ma et al.; cited from earlier work.

Procedure for patients: Prior to surgery, each patient would be given a battery of nine standard tests designed to measure cognitive function in four broad categories; attention and concentration; verbal memory; abstraction and visual orientation; and figure (numbers) memory. Patients would again administered the same tests 24 hours and six weeks post-operatively. Each assessment would be performed by the same investigator who would be blinded to the patient's study group assignment. At the time of the operation, each patient would be induced of general anesthesia according to a protocol utilizing a modified cardiac/narcotic technique. All agents would be administered on a weight based dose (mg/kg) whenever possible. Volatile anesthetic agents would be administered and regulated by the anesthesiologist via the endotracheal tube to maintain adequate blood and pulse pressures both pre and post bypass, and by the perfusionist during bypass to maintain pressures suitable for adequate tissue perfusion. A standardized protocol by which the operation is to be performed would be designed and applied to each patient enrolled in this study. […]

For the compound `N#Cc1cc2[nH]c(=O)c(=O)[nH]c2cc1[N+](=O)[O-]` [CNQX], in the data set on neuronal cells, the “prevention of kainic-induced neurological damage” value is on record as “prevented”.
Take `O=C1CN(/N=C/c2ncc(-c3ccc(Br)cc3)o2)C(=O)N1` [azumolene]: the “benefit in the treatment of Malignant Hyperthermia (MH)” value in the data set with Malignant Hyperthermia is on record as “limited benefit”.
For the compound `O=C1CN(/N=C/c2ccc(-c3ccc([N+](=O)[O-])cc3)o2)C(O)=N1` [dantrolene sodium], in the data set “solubility in water”, the solubility was less than 400 µg/mL.
Take `O=C1CN(/N=C/c2ccc(-c3ccc([N+](=O)[O-])cc3)o2)C(O)=N1` [dantrolene]: the “attenuation of CPB-induced neurologic and neurocognitive dysfunction” value in data set [1] (10.0 mg/kg IV 15 min prior to CPB) is “comparable to xenon”. Further, in [1] (pretreatment IV at both 2.5 mg/kg and 5.0 mg/kg, days 1-12), the “neurologic and neurocognitive outcome after CPB” value was “attenuates CPB associated neurologic and neurocognitive impairment”. In addition, the “CPB-induced neurologic and neurocognitive impairment in man” value with patients is “attenuates CPB-induced neurologic and neurocognitive impairment in man”. Moreover, in the data set “dissolution” (listed as Dantrolene free acid), the “dissolution compared with the sodium salt” value is “slower and less reliable”. Moreover, the “dissolution compared with the sodium salt” value in the data set “dissolution” (listed as free acid) was “significantly slower and more problematic than that of dantrolene sodium”. For the same compound, the “therapeutic index (LD50 / dose for 50% reduction of apoptotic nuclei)” value in data set [2] amounted to 78. The “LD50 (dose yielding 50% lethality)” value in the data set on rats is 780 mg/kg. Further, the “dose yielding 50% reduction of apoptotic nuclei in the cortex” value in data set [3] (i.p., rats given 5 mg/kg kainic acid) is reported as 10 mg/kg. The “kainic acid-mediated apoptosis mechanism” value in data set [3] (rat, in vivo) was “inhibits”. The cardiopulmonary depression entry in data set [4] was “does not cause cardiopulmonary depression”. For the same compound, in the data set on cell culture, the “toxicity induced by NMDA” value is “inhibits”, the “toxicity induced by glutamate” value is on record as “inhibits” and the “toxicity of quisqualate (QA)” value is “inhibited”.
Turning to `[Xe]` [xenon], in [5], the “neuroprotection in the rat CPB model” value is given as “protective”.
